Data as given in patent publication US11001587B2, “Substituted indazoles as phosphatidylinositol kinase inhibitors” (CUROVIR AB, priority 2017, dated 2021).

How the values were obtained:
Enterovirus 6 = assay: In vitro CPE assay in mammalian cell culture, EV6; type: cell-based; conditions: viral cytopathic effect in mammalian cell culture, read-out: EV6 inhibition capacity (IC50)
Enterovirus 30 = assay: In vitro CPE assay in mammalian cell culture, EV30; type: cell-based; conditions: viral cytopathic effect in mammalian cell culture, read-out: EV30 inhibition capacity (IC50)
Enterovirus 68 = assay: In vitro CPE assay in mammalian cell culture, EV68; type: cell-based; conditions: Enterovirus D, viral cytopathic effect in mammalian cell culture, read-out: EV68 inhibition capacity (IC50)
Enterovirus 71 = assay: In vitro CPE assay in mammalian cell culture, EV71; type: cell-based; conditions: Enterovirus A, viral cytopathic effect in mammalian cell culture, read-out: EV71 inhibition capacity (IC50)
coxsackie B1 virus = assay: In vitro CPE assay in mammalian cell culture, B1; type: cell-based; conditions: viral cytopathic effect in mammalian cell culture, read-out: B1 inhibition capacity (IC50)
coxsackie B2 virus = assay: In vitro CPE assay in mammalian cell culture, B2; type: cell-based; conditions: viral cytopathic effect in mammalian cell culture, read-out: B2 inhibition capacity (IC50)
coxsackie B3 virus = assay: In vitro CPE assay in mammalian cell culture, B3; type: cell-based; conditions: Enterovirus B, viral cytopathic effect in mammalian cell culture, read-out: B3 inhibition capacity (IC50)
coxsackie B4 virus = assay: In vitro CPE assay in mammalian cell culture, B4; type: cell-based; conditions: Enterovirus B, viral cytopathic effect in mammalian cell culture, read-out: B4 inhibition capacity (IC50)
coxsackie B5 virus = assay: In vitro CPE assay in mammalian cell culture, B5; type: cell-based; conditions: viral cytopathic effect in mammalian cell culture, read-out: B5 inhibition capacity (IC50)
polio virus Sabin 1 = assay: organism not typed; type: cell-based; conditions: read-out: Polio 1 inhibition capacity (IC50)
PI4KIIIα = PI4KIIIα (Homo sapiens, UniProt P42356); assay: Phosphatidyl inositol kinase inhibition assay (ADP-Glo Kinase Assay); type: biochemical; conditions: * no inhibition at the highest tested concentration 1 μM
Chain of PI4KIIIα (P42356 whole entry): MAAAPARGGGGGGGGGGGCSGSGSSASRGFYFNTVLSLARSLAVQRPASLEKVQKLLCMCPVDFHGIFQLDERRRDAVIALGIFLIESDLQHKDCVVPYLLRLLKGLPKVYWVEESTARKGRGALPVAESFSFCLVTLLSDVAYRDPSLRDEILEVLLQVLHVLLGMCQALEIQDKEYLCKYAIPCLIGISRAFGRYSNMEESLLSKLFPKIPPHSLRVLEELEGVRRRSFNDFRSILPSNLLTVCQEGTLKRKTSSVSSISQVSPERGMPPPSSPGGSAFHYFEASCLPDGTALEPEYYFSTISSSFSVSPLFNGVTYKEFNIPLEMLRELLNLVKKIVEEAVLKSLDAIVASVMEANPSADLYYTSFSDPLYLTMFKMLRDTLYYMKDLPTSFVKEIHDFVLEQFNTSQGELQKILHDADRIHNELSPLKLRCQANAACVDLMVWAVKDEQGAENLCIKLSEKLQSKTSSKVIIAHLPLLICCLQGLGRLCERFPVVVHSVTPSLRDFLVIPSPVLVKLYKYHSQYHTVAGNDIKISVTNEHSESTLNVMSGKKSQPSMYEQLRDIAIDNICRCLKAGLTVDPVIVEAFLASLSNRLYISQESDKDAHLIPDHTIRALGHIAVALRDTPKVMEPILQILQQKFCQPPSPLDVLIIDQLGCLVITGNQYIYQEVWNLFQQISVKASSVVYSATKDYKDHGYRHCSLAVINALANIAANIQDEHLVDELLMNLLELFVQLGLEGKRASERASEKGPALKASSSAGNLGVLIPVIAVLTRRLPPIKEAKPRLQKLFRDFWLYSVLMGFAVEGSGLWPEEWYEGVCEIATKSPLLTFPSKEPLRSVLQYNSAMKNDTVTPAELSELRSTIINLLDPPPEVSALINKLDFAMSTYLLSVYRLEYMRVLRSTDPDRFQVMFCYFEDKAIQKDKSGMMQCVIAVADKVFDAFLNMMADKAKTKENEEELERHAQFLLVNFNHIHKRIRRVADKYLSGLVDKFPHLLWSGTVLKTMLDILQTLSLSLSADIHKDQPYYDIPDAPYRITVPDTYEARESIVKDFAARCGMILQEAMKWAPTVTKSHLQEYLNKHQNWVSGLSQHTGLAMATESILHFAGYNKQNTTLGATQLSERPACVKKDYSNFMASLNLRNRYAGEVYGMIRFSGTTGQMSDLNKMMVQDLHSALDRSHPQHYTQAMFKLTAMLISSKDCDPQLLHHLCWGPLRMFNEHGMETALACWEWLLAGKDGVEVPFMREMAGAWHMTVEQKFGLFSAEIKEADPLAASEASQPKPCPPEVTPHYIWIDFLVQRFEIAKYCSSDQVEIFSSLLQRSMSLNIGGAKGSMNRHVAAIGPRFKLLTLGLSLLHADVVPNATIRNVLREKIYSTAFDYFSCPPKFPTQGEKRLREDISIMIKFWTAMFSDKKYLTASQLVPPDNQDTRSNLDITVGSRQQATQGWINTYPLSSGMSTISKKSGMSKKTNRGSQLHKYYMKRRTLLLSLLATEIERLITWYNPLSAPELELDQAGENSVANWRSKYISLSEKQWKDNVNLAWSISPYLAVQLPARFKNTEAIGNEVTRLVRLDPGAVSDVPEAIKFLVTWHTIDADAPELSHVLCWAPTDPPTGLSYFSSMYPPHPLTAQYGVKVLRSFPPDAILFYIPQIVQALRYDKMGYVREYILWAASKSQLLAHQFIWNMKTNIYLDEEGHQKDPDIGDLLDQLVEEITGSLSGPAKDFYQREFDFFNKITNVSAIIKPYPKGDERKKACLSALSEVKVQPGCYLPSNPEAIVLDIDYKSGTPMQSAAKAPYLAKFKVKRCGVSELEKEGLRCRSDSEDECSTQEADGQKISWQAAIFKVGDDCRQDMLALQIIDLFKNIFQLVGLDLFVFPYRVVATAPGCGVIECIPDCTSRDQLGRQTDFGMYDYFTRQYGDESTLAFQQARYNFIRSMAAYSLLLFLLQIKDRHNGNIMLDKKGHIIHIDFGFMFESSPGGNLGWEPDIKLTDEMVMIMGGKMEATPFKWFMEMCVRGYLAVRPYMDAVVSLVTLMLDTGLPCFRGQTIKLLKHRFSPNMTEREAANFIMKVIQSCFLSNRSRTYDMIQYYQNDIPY
Protocol: (§1) Phosphatidyl inositol kinase inhibition assay Inhibition of PI4 kinases was studied using the ADP-Glo™ Kinase Assay which is a luminescent kinase assay that measures ADP formed from a kinase reaction, wherein ADP is converted into ATP, which is converted into light by Ultra-Glo™ Luciferase. The assay is performed in two steps; first, after the kinase reaction, an equal volume of ADP-Glo™ Reagent is added to terminate the kinase reaction and deplete the remaining ATP. In the second step, the Kinase Detection Reagent is added, which simultaneously converts ADP to ATP and allows the newly synthesized ATP to be measured using a coupled luciferase/luciferin reaction. The luminescent signal produced is proportional to the activity of the kinase. Inhibition of PI3 kinases was studied using the HTRF (homogeneous time-resolved fluorescence) assay, which is a universal method for identifying and characterizing the phosphotransferase activity induced by any ATP/ADP dependent target. The formation of ADP was detected by a specific monoclonal antibody labeled with Eu^3+ cryptate, and directly correlated with the amount of phosphorylated substrate.

PI4KIIIβ = PI4KIIIβ (Homo sapiens, UniProt Q9UBF8); assay: as above; type: biochemical
Protocol: as §1

PI3Kα = PI3Kα (Homo sapiens, UniProt P42336); assay: PI3 kinase inhibition HTRF assay; type: biochemical; conditions: * no inhibition at the highest tested concentration 1 μM
Chain of PI3Kα (P42336 whole entry, species assumed): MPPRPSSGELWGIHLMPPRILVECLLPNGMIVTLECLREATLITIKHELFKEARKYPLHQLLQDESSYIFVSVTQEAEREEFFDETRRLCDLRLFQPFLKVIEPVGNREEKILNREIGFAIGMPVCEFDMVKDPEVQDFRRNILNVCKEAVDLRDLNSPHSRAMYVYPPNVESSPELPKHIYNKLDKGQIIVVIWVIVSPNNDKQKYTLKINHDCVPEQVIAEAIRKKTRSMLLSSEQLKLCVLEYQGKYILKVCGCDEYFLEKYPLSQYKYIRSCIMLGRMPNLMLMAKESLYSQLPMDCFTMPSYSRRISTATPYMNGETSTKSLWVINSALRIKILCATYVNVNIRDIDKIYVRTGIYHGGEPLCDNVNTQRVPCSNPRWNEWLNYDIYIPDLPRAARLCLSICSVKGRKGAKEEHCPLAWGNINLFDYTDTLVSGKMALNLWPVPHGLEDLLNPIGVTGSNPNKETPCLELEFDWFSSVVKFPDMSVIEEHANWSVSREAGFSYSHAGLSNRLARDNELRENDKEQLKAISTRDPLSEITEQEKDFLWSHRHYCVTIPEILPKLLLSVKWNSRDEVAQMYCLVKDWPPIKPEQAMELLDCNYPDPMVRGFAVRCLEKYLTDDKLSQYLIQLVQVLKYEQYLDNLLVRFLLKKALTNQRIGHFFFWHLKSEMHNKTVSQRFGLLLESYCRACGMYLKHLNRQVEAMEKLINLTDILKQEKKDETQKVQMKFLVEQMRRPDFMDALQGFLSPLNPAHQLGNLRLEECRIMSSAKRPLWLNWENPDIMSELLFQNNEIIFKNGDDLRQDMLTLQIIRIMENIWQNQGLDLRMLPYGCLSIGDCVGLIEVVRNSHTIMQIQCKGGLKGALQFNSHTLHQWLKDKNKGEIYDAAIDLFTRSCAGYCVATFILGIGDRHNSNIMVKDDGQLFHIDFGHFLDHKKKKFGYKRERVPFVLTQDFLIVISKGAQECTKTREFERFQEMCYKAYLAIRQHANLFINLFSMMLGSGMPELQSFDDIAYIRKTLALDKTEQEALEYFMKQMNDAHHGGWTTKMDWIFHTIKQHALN
Chain of PI3Kα (P27986 whole entry partner, species assumed): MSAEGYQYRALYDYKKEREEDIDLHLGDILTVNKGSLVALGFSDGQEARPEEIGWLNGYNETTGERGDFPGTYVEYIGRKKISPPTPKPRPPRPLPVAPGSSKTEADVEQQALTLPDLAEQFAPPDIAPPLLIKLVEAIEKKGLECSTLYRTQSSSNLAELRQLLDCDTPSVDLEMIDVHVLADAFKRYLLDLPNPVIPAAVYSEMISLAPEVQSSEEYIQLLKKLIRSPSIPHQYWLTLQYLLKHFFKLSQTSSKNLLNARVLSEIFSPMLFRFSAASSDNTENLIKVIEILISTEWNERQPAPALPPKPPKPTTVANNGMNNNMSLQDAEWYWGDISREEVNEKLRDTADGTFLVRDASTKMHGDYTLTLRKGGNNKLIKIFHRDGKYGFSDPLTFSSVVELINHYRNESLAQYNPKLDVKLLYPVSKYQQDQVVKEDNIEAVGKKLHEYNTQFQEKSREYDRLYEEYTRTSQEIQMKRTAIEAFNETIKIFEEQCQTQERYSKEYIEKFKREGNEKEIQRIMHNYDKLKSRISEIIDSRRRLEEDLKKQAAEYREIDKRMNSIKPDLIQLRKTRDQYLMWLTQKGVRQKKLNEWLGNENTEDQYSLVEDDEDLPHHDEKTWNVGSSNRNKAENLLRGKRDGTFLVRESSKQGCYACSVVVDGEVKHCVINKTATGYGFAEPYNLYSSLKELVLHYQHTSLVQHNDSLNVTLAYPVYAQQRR
Protocol: as §1

PI3Kβ = PI3Kβ (Homo sapiens, UniProt P42338); assay: PI3 kinase inhibition HTRF assay; type: biochemical; conditions: * no inhibition at the highest tested concentration 1 μM
Chain of PI3Kβ (P42338 whole entry, species assumed): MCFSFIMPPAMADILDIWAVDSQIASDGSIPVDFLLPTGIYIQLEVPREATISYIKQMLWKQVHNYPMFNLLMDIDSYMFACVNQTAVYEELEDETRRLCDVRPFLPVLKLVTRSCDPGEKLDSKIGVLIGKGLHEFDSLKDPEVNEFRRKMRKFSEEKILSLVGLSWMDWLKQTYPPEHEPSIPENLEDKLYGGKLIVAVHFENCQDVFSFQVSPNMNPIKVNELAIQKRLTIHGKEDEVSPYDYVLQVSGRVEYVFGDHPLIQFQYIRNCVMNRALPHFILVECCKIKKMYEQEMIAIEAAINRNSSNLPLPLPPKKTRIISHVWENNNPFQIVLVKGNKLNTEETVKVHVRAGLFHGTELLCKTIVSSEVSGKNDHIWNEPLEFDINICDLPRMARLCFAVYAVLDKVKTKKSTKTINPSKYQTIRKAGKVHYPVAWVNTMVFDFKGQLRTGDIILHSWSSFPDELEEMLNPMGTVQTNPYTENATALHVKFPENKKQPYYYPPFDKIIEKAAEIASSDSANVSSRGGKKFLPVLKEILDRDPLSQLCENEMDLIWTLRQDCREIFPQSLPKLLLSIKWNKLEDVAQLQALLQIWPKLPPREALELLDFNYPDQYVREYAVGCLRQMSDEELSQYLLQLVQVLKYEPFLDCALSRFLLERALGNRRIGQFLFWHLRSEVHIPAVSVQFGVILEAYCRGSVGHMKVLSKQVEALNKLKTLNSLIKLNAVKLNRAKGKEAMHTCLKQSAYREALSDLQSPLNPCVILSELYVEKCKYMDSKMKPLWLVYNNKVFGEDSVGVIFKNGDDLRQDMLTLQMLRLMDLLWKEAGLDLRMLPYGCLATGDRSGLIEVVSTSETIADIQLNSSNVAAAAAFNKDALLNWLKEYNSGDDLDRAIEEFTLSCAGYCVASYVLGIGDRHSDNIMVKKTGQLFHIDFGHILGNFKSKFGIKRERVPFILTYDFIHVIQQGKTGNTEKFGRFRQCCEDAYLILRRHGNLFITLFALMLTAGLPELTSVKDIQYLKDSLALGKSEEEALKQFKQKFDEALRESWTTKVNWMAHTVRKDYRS
Chain of PI3Kβ (P27986 whole entry partner, species assumed): as the sequence (P27986 whole entry partner, species assumed) above
Protocol: as §1

in vivo = assay: in vivo; set-up: species or system Sprague Dawley rats; conditions: male, Sprague Dawley, rat, po, 50 mg/kg
Protocol: Overnight fasted animals were administered with the test compounds in recommended vehicle 0.4% (v/v) Tween 80+2% (v/v) Glycerol and 15% w/v HPBCD by oral route with a dose of 50 mg/kg body weight at dose volume of 10 mL/kg bw. Under mild isoflurane anesthesia, blood samples were collected into pre-labeled tubes containing anticoagulant (K2EDTA—2 mg/mL blood) during the next 24 hours post dose. Collected blood samples were centrifuged at 4000 rpm, 4° C. for 10 minutes and plasma was separated and stored at −80° C. until analysis.

[1] = Metabolic stability in human liver microsomes; type: in vitro ADME; conditions: for Remaining after 1 h, HLM: human liver microsomes, 5 μM test item, 0.125 mg/mL microsomal protein; for half-life at 5 μM: human, microsomes
Protocol: (§2) Metabolic stability in human and rat liver microsomesMetabolic stability was studied using human (HLM) or rat (RLM) liver microsomes. The final composition of the assay included 5 μM of test item and reference item (Diclofenac or Imipramine) prepared from DMSO stock, so that the final concentration of DMSO was 0.1%, 0.125 mg/mL microsomal protein and cofactors (5.0 mM G-6-P, 0.06 U/mL G-6-PDH, 2.0 mM MgCl2, 1.0 mM NADP^+). Test and reference items were incubated with human or rat liver microsomes with or without cofactors. The reaction mixture (100 μL) was removed at specified time periods and the reaction was stopped by addition of stop solution. The samples were extracted in presence of internal standard and were analyzed using LC-MS/MS. The percent of the test/reference item remaining after a specified incubation period was calculated with respect to the peak area ratio at time 0 min.

[2] = Metabolic stability in rat liver microsomes; type: in vitro ADME; conditions: 5 μM test item, 0.125 mg/mL microsomal protein
Protocol: as §2

in vitro = in vitro ADME; conditions: plasma, pH 7.4
Protocol: Plasma protein binding study was performed by using a Rapid Equilibrium Dialysis (RED) device containing dialysis membrane with a molecular weight cut-off of 8,000 Daltons. Each dialysis insert contains two chambers. The red chamber was for the plasma while the white chamber was for the buffer. The human and rat plasma (pH adjusted to 7.40) samples of test items and reference items (Warfarin and Propranolol) were prepared at a required test concentration of 5 μM using 5 mM DMSO stocks (final DMSO concentration was 0.1%). 300 μL of plasma sample was added into the sample chamber. 500 μL of buffer was added into the buffer chamber. After sealing the RED device with an adhesive film, incubation was done at 37° C. with shaking at 300 rpm for 4 h. Following incubation, an aliquot of 50 μL was removed from each well (plasma and buffer side) and diluted with equal volume of opposite matrix to nullify the matrix effect. The specimens were subjected to sample extraction in presence of internal standard by liquid-liquid extraction/protein precipitation method. After extraction, the samples were transferred into labeled auto sampler vials and submitted to LC-MS/MS analysis.

SMILES	IC50 (Enterovirus 6) [nM]	IC50 (Enterovirus 30) [nM]	IC50 (Enterovirus 68) [nM]	IC50 (Enterovirus 71) [nM]	IC50 (coxsackie B1 virus) [nM]	IC50 (coxsackie B2 virus) [nM]	IC50 (coxsackie B3 virus) [nM]	IC50 (coxsackie B4 virus) [nM]	IC50 (coxsackie B5 virus) [nM]	IC50 (polio virus Sabin 1) [nM]	IC50 (PI4KIIIα) [nM]	IC50 (PI4KIIIβ) [nM]	IC50 (PI3Kα) [nM]	IC50 (PI3Kβ) [nM]	AUC(0-inf) (in vivo) [µg·h/mL]	AUC(0-t) (in vivo) [µg·h/mL]	AUCextrap (in vivo) [%]	Cmax (in vivo) [ng/mL]	MRT last (in vivo) [h]	Tmax (in vivo) [h]	also measured
Cc1nc(NCc2ccncc2)n2nc(C)c(-c3ccc4c(c3)c(C)nn4C)c2n1 [Example 20, 8-(1,3-dimethyl-1H-indazol-5-yl)-2,7-dimethyl-N-(pyridin-4-ylmethyl)pyrazolo[1,5-a][1,3,5]triazin-4-amine]	< 1000	< 10	< 10	< 10	< 1	< 1	< 1	< 10	< 1	< 1	> 1000	1.2	> 1000	> 1000	115 ± 9.4	110 ± 8.3	5.1 ± 4.9	8000 ± 1500	6.8 ± 0.9	2	half-life (in vivo): 5 ± 2.3 h; Remaining after 1 h, HLM [1]: 78%; half-life at 5 μM [1]: > 2 h; Remaining after 1 h, RLM [2]: 96%; fraction unbound at 4 h, 5 μM (in vitro; human): 0.906; fraction unbound at 4 h, 5 μM (in vitro; rat): 0.031
Cc1cc(NCc2ccncc2)n2nc(C)c(-c3ccc4c(c3)c(C)nn4C)c2n1 [Example 8, 3-(1,3-dimethyl-1H-indazol-5-yl)-2,5-dimethyl-N-(pyridin-4-ylmethyl)pyrazolo[1,5-a]pyrimidin-7-amine]	< 100	< 1	< 0.1	< 0.1	< 0.1	< 0.1	< 0.1	< 10	< 0.1	< 0.1	1300	0.9	> 1000	1500	197 ± 27.1	185 ± 13.3	5.7 ± 6.1	12900 ± 700	6.8 ± 0.8	1.7 ± 0.6	half-life (in vivo): 5.4 ± 2.5 h; Remaining after 1 h, HLM [1]: 86%; half-life at 5 μM [1]: > 2 h; Remaining after 1 h, RLM [2]: 90%; fraction unbound at 4 h, 5 μM (in vitro; human): 0.027; fraction unbound at 4 h, 5 μM (in vitro; rat): 0.024
